Patent publication US20130195919A1, “INDUCED DENDRITIC CELL COMPOSITIONS AND USES THEREOF” (PRESIDENT AND FELLOWS OF HARVARD COLLEGE, priority 2010, published 2013)

Columns and labels:
[1] = test system: DC
[2] = test system: DC; assay: DC immunogenicity: OT-II T cell proliferation by CFSE dilution; format: cell-based, mouse; details: LPS plus 1 mM rotenone; CFSE dilution on D3
Experimental: (§1) The effect of direct inhibition of mitochondrial respiration, by an inhibitor of mitochondrial respiratory complex I, rotenone, was tested. […] Control DC were treated with LPS without OVA pulsing. T cell proliferation was analyzed by CFSE dilution on D3.

[3] = test system: DC; assay: DC maturation marker expression by FACS; format: cell-based, mouse; details: 100 μM, 6 hours
Experimental: DC were isolated and kept for 6 hours at 4 degrees (ctrlDC 4C) or culture to produce ctrlDC (37C), lpsDC itDC and it/lpsDC. Simultaneously cells were treated with the purinergic receptor agonists ATP (1 mM) and Bz-ATP (100 μM), purinergic receptors antagonists oxidized ATP (oATP, 100 μM) and suranim (100 μM), the adenosine monophosphate kinase (AMPK) stimulator AICAR (100 μM) and the enzyme Apyrase (200 U/ml) that catalyses ATP. Cells were harvested after 6 hours and the expression of the indicated markers was assessed by FACS.

[4] = test system: DC; assay: Oxygen consumption rate (OCR) of DC; format: cell-based, mouse; details: 2 h activation; oATP with or without LPS co-treatment
Experimental: Mitochondria oxygen consumption rate (OCR) was measured by using a YSI 5300 Clark-type electrode (Yellow Springs Instrument, Yellow Springs, Ohio, USA) or the XF24 Extracellular Flux Analyzer (Seahorse Bioscience, Billerica, Mass.) following the manufacturer's protocol. Primary cultured DC (10^6 cells/well) were used as described in the experiments.
The effect of the activation of DC on the O2 consumption rate (OCR) was tested to attempt to correlate increased OCR with increased immunogenicity.
as §1

[5] = test system: DC; assay: Ex vivo Treg differentiation: Foxp3 induction in Tn by treated DC; format: cell-based, mouse

Compound | DC maturation (expression of markers) [3] | OCR of DC [4] | also measured
C=C(C)[C@H]1Cc2c(ccc3c2O[C@@H]2COc4cc(OC)c(OC)cc4[C@@H]2C3=O)O1 [rotenone] | – | – | toxicity to DC (maturation markers CD80, C86, MHC-II and migration to CCL21) [1]: not toxic to DC; T cell proliferation induced by antigen pulsed, LPS matured DC [2]: induced much less T cell proliferation
NC(=O)c1ncn([C@@H]2O[C@H](CO)[C@@H](O)[C@H]2O)c1N [AICAR, 5-aminoimidazole-4-carboxamide-1-β-4-ribofuranoside] | block DC maturation | – | –
Nc1ncnc2c1ncn2[C@@H]1O[C@H](COP(=O)(O)OP(=O)(O)OP(=O)(O)O)[C@@H](O)[C@H]1O [ATP, adenosine triphosphate] | – | enhanced OCR levels in DCs | –
Periodate-oxidized ATP [oATP] | block DC maturation | reduced OCR | capacity to imprint DC with tolerogenic potential (percentages of Foxp3 and CD25 expressing cells) ([5]; DC incubated 2 hours, oATP 100 μM, 5 days in coculture): significantly imprints DC with tolerogenic potential; tolerogenic capacity compared with the combination of rapamycin and TGFβ ([5]; oATP 100 μM vs rapamycin 10 nM and TGFβ 2 ng/ml): matches or exceeds
